Drawing on patent US5948816A, “4-substituted-2,7-dideoxy-7-fluoro-2,3-didehydro-sialic acid compounds” (priority 1996, dated 1999), this text covers IC50 and sialidase inhibitory activity for 3 compounds.

Counter-ions that a name gives are not always drawn.

For this assay, the target named is sialidase (Influenza A virus, UniProt P03468). The assay can be described thus: Influenza virus sialidase inhibition (free sialic acid released from α 2-3 sialyl-lactose, pH 5.2, 37° C., densitometry). It counts as biochemical, Influenza virus A/PR/8/34. The following applies: for IC50: α 2-3 sialyl-lactose substrate, pH 5.2, 37° C., 10 minutes.
Sequence of sialidase (P03468 whole entry): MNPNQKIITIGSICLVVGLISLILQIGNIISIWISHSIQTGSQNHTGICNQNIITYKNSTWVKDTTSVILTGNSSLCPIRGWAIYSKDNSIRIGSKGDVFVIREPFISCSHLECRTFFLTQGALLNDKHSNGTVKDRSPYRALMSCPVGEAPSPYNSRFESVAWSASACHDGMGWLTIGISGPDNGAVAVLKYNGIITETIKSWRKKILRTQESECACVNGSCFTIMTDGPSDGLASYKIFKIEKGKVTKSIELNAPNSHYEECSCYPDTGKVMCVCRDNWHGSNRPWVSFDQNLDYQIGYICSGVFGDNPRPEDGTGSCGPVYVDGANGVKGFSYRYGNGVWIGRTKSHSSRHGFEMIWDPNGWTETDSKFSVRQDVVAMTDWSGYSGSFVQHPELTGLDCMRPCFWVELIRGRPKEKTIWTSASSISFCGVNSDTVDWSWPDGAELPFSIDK

With `CC(=O)N[C@H]1[C@H]([C@H](O)[C@H](O)CO)OC(C(=O)O)=C[C@@H]1N` [4-Amino-2,3-didehydrosialic acid, 4-amino-2,3-didehydrosialic acid], the concentration for half-maximal inhibition (IC50) came out at 1500 nM.
Regarding `CC(=O)N[C@H]1[C@H]([C@H](F)[C@H](O)CO)OC(C(=O)O)=C[C@@H]1N` [5-Acetamide-4-amino-2,6-anhydro-7-fluoro-3,4,5,7-tetradeoxy-D-glycero-D-galacto-non-2-enonic acid Sodium salt], the sialidase inhibitory activity entry was “very potent” and the IC50 turned out to be 500 nM.
Regarding `CC(=O)N[C@H]1[C@H]([C@H](F)[C@H](O)CO)OC(C(=O)O)=C[C@@H]1O` [7-Fluoro-2,3-didehydrosialic acid], the IC50 was determined as 2900 nM.

As usually defined, the IC50 is the concentration that gives 50% inhibition.
